# Test system: normal human lung fibroblasts
# Experiment: Ribosomal profiling: translational efficiency in TGFβ-treated fibroblasts
# Format: cell-based
# Settings: TGFβ-treated fibroblasts
# Description: Ribosomal profiling allows for measurement of changes in transcription and translation on a genome-wide basis accompanying TGFβ-dependent transformation of fibroblasts to myofibroblasts. Ribosomal profiles of the TGFβ-treated fibroblasts from Example 1 (about 6×10^6 cells/10 cm plate) were prepared and analyzed for changes in translational efficiencies with respect to potential disease-associated cellular changes accompanying this TGFβ-induced transformation.
# Briefly, cells were washed with cold PBS supplemented with cycloheximide and lysed with 1× mammalian cell lysis buffer for 10 minutes on ice. Lysates were clarified by centrifugation for 10 minutes at 14,000 rpm and supernatants were collected. Cell lysates were processed to generate ribosomal protected fragments and total mRNA according to the instructions included with the ARTseq Ribosome Profiling Kit (Illumina, San Diego, Calif.). Sequencing of total RNA (RNA) and of ribosome-protected fragments of RNA (RPF) was carried out using RNA-Seq methodology according to the manufacturer's instructions (Illumina). To analyze the ribosomal profiles, RNA-Seq reads were processed with tools from the FASTX-Toolkit (fastq_quality_trimmer, fastx_clipper and fastx_trimmer). Unprocessed and processed reads were evaluated for a variety of quality measures using FastQC, and processed reads were mapped to the human genome using TopHat (see, e.g., Trapnell et al., Bioinformatics 25:1105, 2009). Gene-by-gene assessment of the number of fragments strictly and uniquely mapping to the coding region of each gene was conducted using HTSeq-count, a component of the HTSeq package. […] Genes with low counts in either RPF or RNA were excluded from differential analyses. Pathway and network analyses of differential data were conducted using Ingenuity Pathway Analysis (IPA).
structure (smiles),measurement,setting,value
COC(=O)[C@H]1[C@@H](O)[C@@]2(O)c3c(OC)cc(O[C@@H]4O[C@@H]([C@H](O)CO)CO[C@H]4OC)cc3O[C@@]2(c2ccc(OC)cc2)[C@@H]1c1ccccc1 [Silvestrol],renormalizing the translational profile of RPL9,ENSG00000163682,− (− = <0.9)
same,renormalizing the translational profile of RHOBTB3,ENSG00000164292,− (− = <0.9)
same,renormalizing the translational profile of HCN1,ENSG00000164588,− (− = <0.9)
same,renormalizing the translational profile of RPL36AL,ENSG00000165502,− (− = <0.9)
same,renormalizing the translational profile of RPL27A,ENSG00000166441,− (− = <0.9)
same,renormalizing the translational profile of RP11-382A20.3.1,ENSG00000166503,− (− = <0.9)
same,renormalizing the translational profile of ANKDD1A,ENSG00000166839,− (− = <0.9)
same,renormalizing the translational profile of RPL13,ENSG00000167526,− (− = <0.9)
same,renormalizing the translational profile of EEF2,ENSG00000167658,− (− = <0.9)
same,renormalizing the translational profile of CA5B,ENSG00000169239,+ (+ = 0.9 to 1.5)
same,renormalizing the translational profile of MURC,ENSG00000170681,− (− = <0.9)
same,renormalizing the translational profile of HTRA3,ENSG00000170801,− (− = <0.9)
same,renormalizing the translational profile of PDE7B,ENSG00000171408,+ (+ = 0.9 to 1.5)
same,renormalizing the translational profile of LPAR3,ENSG00000171517,+ (+ = 0.9 to 1.5)
same,renormalizing the translational profile of CTPS,ENSG00000171793,− (− = <0.9)
same,renormalizing the translational profile of QARS,ENSG00000172053,− (− = <0.9)
same,renormalizing the translational profile of RPL38,ENSG00000172809,− (− = <0.9)
same,renormalizing the translational profile of MRPL45,ENSG00000174100,− (− = <0.9)
same,renormalizing the translational profile of RPL4,ENSG00000174444,− (− = <0.9)
same,renormalizing the translational profile of RPL15,ENSG00000174748,− (− = <0.9)
same,renormalizing the translational profile of DES,ENSG00000175084,− (− = <0.9)
same,renormalizing the translational profile of EIF3F,ENSG00000175390,− (− = <0.9)
same,renormalizing the translational profile of CLCF1,ENSG00000175505,+ (+ = 0.9 to 1.5)
same,renormalizing the translational profile of AMIGO3,ENSG00000176020,− (− = <0.9)
same,renormalizing the translational profile of C14orf49,ENSG00000176438,− (− = <0.9)
same,renormalizing the translational profile of RPLP2,ENSG00000177600,− (− = <0.9)
same,renormalizing the translational profile of IMPDH2,ENSG00000178035,− (− = <0.9)
same,renormalizing the translational profile of DNAJC22,ENSG00000178401,− (− = <0.9)
same,renormalizing the translational profile of RPL35A,ENSG00000182899,− (− = <0.9)
same,renormalizing the translational profile of LENG9,ENSG00000182909,+ (+ = 0.9 to 1.5)
same,renormalizing the translational profile of C22orf32,ENSG00000183172,− (− = <0.9)
same,renormalizing the translational profile of NPW,ENSG00000183971,− (− = <0.9)
same,renormalizing the translational profile of PDE4B,ENSG00000184588,+++ (+++ = >2.0)
same,renormalizing the translational profile of ROBO2,ENSG00000185008,− (− = <0.9)
same,renormalizing the translational profile of PTCH1,ENSG00000185920,− (− = <0.9)
same,renormalizing the translational profile of POLR1D,ENSG00000186184,− (− = <0.9)
same,renormalizing the translational profile of DYNC2H1,ENSG00000187240,++ (++ = 1.5 to 2.0)
same,renormalizing the translational profile of RPL14,ENSG00000188846,− (− = <0.9)
same,renormalizing the translational profile of LRRK2,ENSG00000188906,− (− = <0.9)
same,renormalizing the translational profile of NACA,ENSG00000196531,− (− = <0.9)
same,renormalizing the translational profile of LAMB3,ENSG00000196878,+ (+ = 0.9 to 1.5)
same,renormalizing the translational profile of PCBP2,ENSG00000197111,+ (+ = 0.9 to 1.5)
same,renormalizing the translational profile of MAP3K5,ENSG00000197442,− (− = <0.9)
same,renormalizing the translational profile of RPL37A,ENSG00000197756,− (− = <0.9)
same,renormalizing the translational profile of RPL12,ENSG00000197958,− (− = <0.9)
same,renormalizing the translational profile of LPAR1,ENSG00000198121,− (− = <0.9)
same,renormalizing the translational profile of RPL23A,ENSG00000198242,− (− = <0.9)
same,renormalizing the translational profile of RPL10A,ENSG00000198755,− (− = <0.9)
same,renormalizing the translational profile of RPL39,ENSG00000198918,− (− = <0.9)
same,renormalizing the translational profile of CARD16,ENSG00000204397,+ (+ = 0.9 to 1.5)
same,renormalizing the translational profile of MICA,ENSG00000204520,− (− = <0.9)
same,renormalizing the translational profile of GNB2L1,ENSG00000204628,− (− = <0.9)
same,renormalizing the translational profile of RPL17,ENSG00000215472,− (− = <0.9)
same,renormalizing the translational profile of RPL41,ENSG00000229117,− (− = <0.9)
same,renormalizing the translational profile of ARPC1A,ENSG00000241685,− (− = <0.9)
same,renormalizing the translational profile of EEF1G,ENSG00000254772,− (− = <0.9)
same,number of genes whose translational efficiency was uniquely modulated by the compound,duplicate ribosomal profiles,26 genes
same,effect in renormalizing the translational profile of the gene,gene RPS2 (ENSG00000140988),− (− = <0.9)
same,effect in renormalizing the translational profile of the gene,gene RPS3 (ENSG00000149273),− (− = <0.9)
same,effect in renormalizing the translational profile of the gene,gene RPS3A (ENSG00000145425),− (− = <0.9)
same,effect in renormalizing the translational profile of the gene,gene RPS4X (ENSG00000198034),− (− = <0.9)
same,effect in renormalizing the translational profile of the gene,gene RPS4Y1 (ENSG00000129824),− (− = <0.9)
same,effect in renormalizing the translational profile of the gene,gene RPS5 (ENSG00000083845),− (− = <0.9)
same,effect in renormalizing the translational profile of the gene,gene RPS6 (ENSG00000137154),− (− = <0.9)

# From patent US9993494B2, “Compositions and methods for treating fibrotic disease” (eFFECTOR Therapeutics, Inc., priority 2014, dated 2018)
